Laboratory results from ChEMBL document CHEMBL5647698, “Covalent-Allosteric Inhibitors to Achieve Akt Isoform-Selectivity” (Angew Chem Int Ed Engl, 2019).
Calls of active or inactive are those of the source. No cut-off for these calls is given here.

How the values were obtained:
[1] = molecular target: RAC-gamma serine/threonine-protein kinase (Homo sapiens, UniProt Q9Y243)
Description: Inhibition of wild-type AKT3 (unknown origin) by HTRF KinEASE assay

[2] = molecular target: RAC-alpha serine/threonine-protein kinase (Homo sapiens, UniProt P31749); assay: biochemical
PANC-1 [3] = assay: Downregulation of p-PRAS40 level at threonine 246 residue in Akt1 knockout human PANC-1 cells measured after 24 hrs by Western blotting analysis; format: functional, cell-based; conditions: dose 0.3-5 µM
PANC-1 [4] = assay: Downregulation of p-AKT level at serine 473 residue in Akt1 knockout human PANC-1 cells measured after 24 hrs by Western blotting analysis; format: functional, cell-based; conditions: dose 0.3-5 µM

Chain of RAC-alpha serine/threonine-protein kinase (P31749 whole entry): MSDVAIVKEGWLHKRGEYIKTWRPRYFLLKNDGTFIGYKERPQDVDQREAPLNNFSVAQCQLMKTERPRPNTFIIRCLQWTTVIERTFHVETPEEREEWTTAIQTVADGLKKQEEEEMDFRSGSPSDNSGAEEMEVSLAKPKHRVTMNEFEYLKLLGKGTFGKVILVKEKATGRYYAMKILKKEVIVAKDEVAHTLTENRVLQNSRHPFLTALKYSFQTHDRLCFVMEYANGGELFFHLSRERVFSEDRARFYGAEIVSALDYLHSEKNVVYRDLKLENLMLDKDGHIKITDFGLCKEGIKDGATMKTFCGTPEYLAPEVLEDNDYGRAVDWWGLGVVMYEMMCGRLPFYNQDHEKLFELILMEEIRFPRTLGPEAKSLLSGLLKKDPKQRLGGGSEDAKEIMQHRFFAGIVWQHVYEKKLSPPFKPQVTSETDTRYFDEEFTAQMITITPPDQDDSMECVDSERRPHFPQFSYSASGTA
Chain of RAC-gamma serine/threonine-protein kinase (Q9Y243 whole entry): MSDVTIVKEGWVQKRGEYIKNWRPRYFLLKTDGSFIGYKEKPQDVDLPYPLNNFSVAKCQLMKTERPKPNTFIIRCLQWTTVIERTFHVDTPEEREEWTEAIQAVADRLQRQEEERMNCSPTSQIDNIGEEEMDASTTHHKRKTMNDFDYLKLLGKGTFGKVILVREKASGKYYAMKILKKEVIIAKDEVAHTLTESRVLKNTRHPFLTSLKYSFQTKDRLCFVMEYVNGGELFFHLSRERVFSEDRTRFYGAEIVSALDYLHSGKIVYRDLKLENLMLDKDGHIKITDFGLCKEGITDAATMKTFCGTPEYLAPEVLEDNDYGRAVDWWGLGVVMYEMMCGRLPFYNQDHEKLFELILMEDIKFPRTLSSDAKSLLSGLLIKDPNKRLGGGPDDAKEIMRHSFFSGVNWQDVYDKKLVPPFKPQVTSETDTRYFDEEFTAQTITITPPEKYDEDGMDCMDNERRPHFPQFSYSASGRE

Compound | IC50 [1] [µM] | IC50 [2] [µM] | Activity (PANC-1 [3]) | Activity (PANC-1 [4])
Nc1ccc2[nH]c(=O)n(C3CCN(Cc4ccc(-c5[nH]c(=O)c(Cc6ccc(O)cc6)nc5-c5ccccc5)cc4)CC3)c2c1 | 17.7 | 5.59 | – | –
CC(C)Cc1nc(-c2ccccc2)c(-c2ccc(CN3CCC(n4c(=O)[nH]c5ccc(N)cc54)CC3)cc2)[nH]c1=O | – | 2.83 | – | –
C=CC(=O)Nc1ccc2[nH]c(=O)n(C3CCN(Cc4ccc(-c5nc6cc[nH]c(=O)c6cc5-c5ccccc5)cc4)CC3)c2c1 | – | – | Active | Active
C=CC(=O)Nc1ccc2[nH]c(=O)n(C3CCN(Cc4ccc(-c5[nH]c(=O)c(C)nc5-c5ccccc5)cc4)CC3)c2c1 | – | – | Active | Active
C=CC(=O)Nc1ccc2[nH]c(=O)n(C3CCN(Cc4ccc(-c5[nH]c(=O)c(CC(C)C)nc5-c5ccccc5)cc4)CC3)c2c1 | – | – | Active | Active
